Laboratory results from US20050256040A1, “Artificially designed pore-forming proteins with anti-tumor effects” (Buck Institute, priority 2004, published 2005).
“Also recorded” adds a separate entry of the source. Like-named read-outs stand apart in the source and are kept apart here.

Experiments:
KS1767 cells [1] = test: Matrigel / polymeric fibronectin assay of cell viability; type: cell-based, human; conditions: for effect on KS1767 cell layer: regardless of the presence of matrigel
Experimental: To determine the mechanisms responsible for selective anti-tumor activity of SGP in vivo, a matrigel assay (to mimic extracellular matrix) was developed. Cell viability was determined by morphology (see Ellerby, et al. (1999) supra.; and Ellerby, et al. (1997) supra.). KS1767 cells were incubated with SGP at 1 mM in the presence or absence of matrigel or polymeric fibronectin (sFN). The fibronectin polymer was produced as previously described (see Pasqualini, et al. (1996) Nature Med. 2, 1197-1203). Briefly, cell culture medium was aspirated from adherent cells. Cells were then coated with matrigel (gently pipetted on each well to completely coat the entire cell layer), or the fibronectin polymer, and incubated at 37° C. for 10 min. SGP was added and the cells were viewed on an inverted microscope (Nikon TE 300). KS1767 cells were also exposed to doxorubicin (20 μg/well) or SGP in the presence or absense of matrigel for 24 h. Cell viability (%) was evaluated after no treatment (medium or matrigel alone), incubation with SGP or doxorubicin. Cell death was evaluated morphologically (see Ellerby, et al. (1999) supra.; and Ellerby, et al. (1997) supra.), and cell viability was compared relative to untreated controls (no matrigel) or absence of SGP.

[2] = Cell viability LC50, cell line not given in Table I; type: cell-based; conditions: for CC50: cell line cell empty (row under KS 1767), read-out: LC50 at 30 min
Experimental: (§1) To evaluate the effects of SGP on cell membranes multiple human cell lines of different origins were treated (see Table I, which presents a comparison of LC50 data for SGP, SGP-L, and SGP-E on a variety of cultured human cell types).
(§2) Cell viability was determined by morphology (see Ellerby, et al. (1999) Nat. Med. 5, 1032-1038; and Ellerby, et al. (1997) J. Neurosci. 17, 6165-6178). For viability assays, KS1767 cells were incubated with the concentrations of SGP, SGP-L, SGP-E, or control peptides indicated in the figures and in Table I. Briefly, at the given time points, cell culture medium was aspirated from adherent cells. Cells were then gently washed once with PBS at 37° C. A 20-fold dilution of the dye mixture (100 μg/ml acridine orange and 100 μg/ml ethidium bromide) in PBS was then gently pipetted on the cells and viewed on an inverted microscope (Nikon TE 300). […] Percent viability was calculated relative to untreated cells.

[3] = system: H358 lung carcinoma xenografts; test: Anti-tumor activity, H358 lung carcinoma xenografts in nude mice; type: in vivo, nude/nude Balb/c mice
From the text: (§3) Data are shown for human PC3-derived prostate carcinoma and H358 lung carcinoma. Tumor cells were implanted on the flank at the start of the experiments. Mice were divided in similar groups based on matched tumor volumes at the start of the experiment (open circles).
(§4) MDA-MB-435-, KS1767-, PC-3-, and H358-derived human tumor xenografts were established in 2-month-old female or male (according to the tumor type), nude/nude Balb/c mice (Jackson Labs, Bar Harbor, Me.) by administering […] per mouse in a 200 μl volume of serum-free Dulbecco's modified Eagle's medium into the mammary fat pad or on the flank (see Ellerby, et al. (1999) Nat. Med. 5, 1032-1038). The mice were anesthetized with Avertin as described (see Ellerby, et al. (1999) supra.). SGP was administered directly into the center of the tumor mass at a concentration of 100 μM or 1 mM given slowly in 5 μl increments, for a total volume of 40 μl. Measurements of tumors were taken by caliper under anesthesia and used to calculate tumor volume (see Ellerby, et al. (1999) supra.). Animal experimentation was reviewed and approved by the Institutional Animal Care and Use Committee.

[4] = Cell viability LC50, HPAEC cells; type: cell-based; conditions: human, HPAEC (Human Pulmonary Artery Endothelial Cells)
Experimental: as §1, §2

[5] = Cell viability LC50, 293 cells; type: cell-based; conditions: human, 293 cells (human kidney cells)
Experimental: as §1, §2

[6] = system: human MDA-MB-435-derived breast carcinoma xenografts; test: Anti-tumor activity, MDA-MB-435 breast carcinoma xenografts in nude mice; type: in vivo, nude/nude Balb/c mice; conditions: for tumor appearance: 4 weekly treatments at 40 μl/week, starting volume 100 mm^3
Experimental: as §4
In the first set of experiments, tumors were allowed to form after injection of a breast carcinoma cell line (MDA-MD-435) and then treated with local injections of SGP. […] Starting tumor volumes ranged from about 100 mm^3 to large sizes of about 600 mm^3. Tumor-bearing mice were given four weekly treatments of PBS, or 100 μM or 1 mM SGP (40 μl/treatment given in 5 μl increments). After a 4-week period without treatment, the tumor volumes were measured at 8 weeks. The average tumor volume at the end of the experiment in the SGP-treated groups was […] than the average volume seen in the PBS-treated group (FIG. 3A). There was no difference between the average tumor volumes of the 2 SGP treatment groups. Mice treated with SGP remained tumor-free for up to 4 months after tumor implantation, before being euthanized for histological evaluation. These observations indicate that both primary tumor growth (FIG. 4) and metastases were inhibited. […] By successfully treating a large number of mice and testing the effects of SGP on several different tumor xenograft models (including carcinomas, sarcomas, and melanomas), the therapeutic properties of SGP were firmly established. […] It was also evaluated whether SGP produced adverse side effects such as necrosis when injected under normal skin.
MDA-MB-435-derived breast carcinoma and KS1767-derived Kaposi sarcoma xenografts and organs were removed, fixed in Bouin solution, embedded in paraffin for preparation of tissue sections, and stained with hematoxylin and eosin (see Ellerby, et al. (1999) supra.).

[7] = system: human PC3-derived prostate carcinoma xenografts; test: Anti-tumor activity, PC-3 prostate carcinoma xenografts in nude mice; type: in vivo, nude/nude Balb/c mice; conditions: PC-3 tumors, 10 weeks
From the text: as §3, §4

[8] = Cell viability LC50, HUVEC cells; type: cell-based; conditions: human, HUVEC (Human Umbilical Cord Vascular Endothelial Cells)
Experimental: as §1, §2

[9] = Cell viability LC50, CADMEC cells; type: cell-based, human; conditions: human
Experimental: as §1, §2

[10] = cited from earlier work; for ability to disrupt synthetic membranes: Matsumoto et al. 2001
KS1767 cells [11] = type: cell-based; conditions: for CC50: KS 1767 cells, read-out: LC50 at 30 min; for toxicity to mammalian cultured cells compared with SGP: Table I cell types
Experimental: All cell lines were obtained commercially. The Kaposi's sarcoma-derived cell line KS1767 and the breast carcinoma cell line MDA-MB-435 have been described previously (see, for example, Herndier, et al. (1994) Aids 8, 575-581; Reisbach, et al. (1982) Anticancer Res. 2, 257-260; and Ellerby, et al. (1999) Nat. Med. 5, 1032-1038) and were cultured in 10% fetal bovine serum/Dulbecco's modified Eagle's medium, containing antibiotics.
as §1, §2

normal skin = test: Skin toxicity in nude mice; type: in vivo; conditions: 100 μM, injected sub-cutaneously or intradermally under normal skin
Experimental: 2-month-old female nude mice (Jackson Labs) were anesthetized with Avertin. 10 μl of 100 μM SGP or PBS was injected into the skin. The injected areas were monitored for 2 weeks.

[12] = system: CADMEC = Cell Applications Dermal Microvessel Endothelial Cells; test: Cell viability LC50, CADMEC cells; type: cell-based, human; conditions: read-out: LC50 at 30 min
Experimental: as §1, §2

CCO [ethanol, reference compound]
effect on KS1767 cells (KS1767 cells [1]; in the presence of polymeric fibronectin (sFN)): induced massive cell death | effect on KS1767 cell layer (KS1767 cells [1]): damaged the cell layer

Ac-AAAAAAWAAAAGPNGLYLKKKLLKKLLKLLGNPGLKLYKKLLKKLLLKLGNPGLLKLYKKLLKKLLKLL-OH [SGP, small globular protein]
CC50 at 30 min ([2]; human): 4 µM | effect on KS1767 cells (KS1767 cells [1]; 1 mM, in the presence of matrigel): remain unaffected | effect on KS1767 cell viability (KS1767 cells [1]; 1 mM, in the presence of polymeric fibronectin (sFN)): ineffective; also recorded: remain unaffected | effect on KS1767 cells (KS1767 cells [1]; 1 mM, without matrigel): decreases cell viability | SGP activity in the presence of fibronectin alone (KS1767 cells [1]; fibronectin alone (not polymeric), control): did not prevent SGP activity | tumor volume compared with PBS-treated tumors ([3]; H358 tumors, 9 weeks): smaller than control PBS-treated tumors | tumor appearance ([3]; after 6 weekly treatments at 40 μl/week, FIG. 5C): have disappeared | CC50 at 30 min [4]: 5 µM | CC50 at 30 min [5]: 5 µM | tumor appearance ([6]; 100 μM): flattened and virtually disappeared | histopathology of tumor xenografts ([6]; 100 μM, harvested at 8 weeks after treatment initiation): widespread cell death; also recorded: extensive apoptosis | tumor appearance ([6]; 1 mM): flattened and virtually disappeared | difference between average tumor volumes of 100 μM and 1 mM groups ([6]; 8 weeks): no difference | histological analysis of the major organs ([6]; SGP-treated mice): no overt pathology | time mice remained tumor-free after tumor implantation ([6]; before being euthanized for histological evaluation): up to 4 months | tumor volume compared with PBS-treated controls ([6]; four weekly intratumoral treatments, 100 μM or 1 mM, 40 μl, measured at 8 weeks): significantly smaller; also recorded: smaller than controls | primary tumor growth and metastases ([6]; mouse, in vivo): inhibited | surgical examination of the tumor sites ([6]; mouse, in vivo): no sign of tumor cells | tumor volume compared with PBS-treated tumors [7]: smaller than control PBS-treated tumors | CC50 at 30 min [8]: 7 µM | CC50 at 30 min [9]: 5 µM | pore size (conductance) in synthetic bilayers ([10]; Lee et al. 1997): 14 pS | effect on KS1767 cells (KS1767 cells [11]; 3 μM, 24 h): classic morphological signs of apoptosis | effect on KS1767 cells (KS1767 cells [11]; 10 μM, within 60 s): extremely rapid non-necrotic, non-apoptotic cell death | effect on KS1767 cells (KS1767 cells [11]; 10 μM, within 60 min): necrosis | effect on KS1767 cells (KS1767 cells [11]; below 5 μM, over 24-hour period, confirmed by caspase-3 activation assay): induction of apoptosis | concentration affecting tumor derived cells as well as normal cells (KS1767 cells [11]; cultured cells, tumor derived and normal): ~3 µM | skin toxicity (normal skin): relatively non-toxic to normal skin

DLSLARLATARLAI [negative control peptide, reference compound]
effect on KS1767 cells (KS1767 cells [11]; 100 μM, 60 s): unaffected | effect on KS1767 cells (KS1767 cells [11]; 100 μM, 24 h): unaffected | effect on KS1767 cells (KS1767 cells [11]; 100 μM, after 60 min): unaffected

COc1cccc2c1C(=O)c1c(O)c3c(c(O)c1C2=O)C[C@@](O)(C(=O)CO)C[C@@H]3O[C@H]1C[C@H](N)[C@H](O)[C@H](C)O1 [doxorubicin, reference compound]
effect on KS1767 cell viability (KS1767 cells [1]; 20 μg/well, 24 h, in the presence of matrigel): decreased cell viability | effect on KS1767 cell layer (KS1767 cells [1]): damaged the cell layer

B1: SGP-E: SGP variant SEQ ID NO:3; lysines replaced by glutamic acids; negative control (peptide)
chain: AAAAAAWAAAAGNPGLELLKKLYKKLLELLGNPGLELLKKYLKKLLELLGNPGLLELLKKYLKKLLELL
CC50 [2]: 30 µM | CC50 [12]: 30 µM | ability to disrupt synthetic membranes [10]: diminished | CC50 (KS1767 cells [11]): 30 µM | toxicity to mammalian cultured cells compared with SGP (KS1767 cells [11]): substantially less toxic

B2: SGP-L: SGP variant SEQ ID NO:4; central all alanine helix replaced by an all leucine helix; negative control (peptide)
chain: LLLLLLWLLLLGPNGLKLYKKLLKKLLKLLGNPGLKLYKKLLKKLLLKLGNPGLLKLYKKLLKKLLKLL
CC50 [2]: 60 µM | CC50 [12]: 60 µM | ability to disrupt synthetic membranes [10]: diminished | CC50 (KS1767 cells [11]): 60 µM | toxicity to mammalian cultured cells compared with SGP (KS1767 cells [11]): substantially less toxic
